This is an account of results in publication PMC7526550, “Allosteric folding correction of F508del and rare CFTR mutants by elexacaftor-tezacaftor-ivacaftor (Trikafta) combination” (JCI Insight, 2020).

For one assay, the target named is CFTR (WT-NBD1-1S) (Homo sapiens, UniProt P13569, F494N). Description: biochemical. Details: SPR (Biacore T200) steady-state affinity of correctors to immobilized biotinylated CFTR NBD1. As to the method: (§1) As described in our previous publication ([21]), binding interactions between biotinylated NBD1 constructs (WT-1S-, F508del-1S-, F508del-3S-NBD1; ~30 kDa each) and corrector compounds were examined with a BIACORE T200 system (GE Healthcare Bio-Sciences AB; Control software v2.0 and Evaluation software v1.0). Briefly, neutravidin (2 mg/mL in water, diluted to 50 μg/mL in 10 mM sodium acetate, pH 5.0; Thermo Fisher Scientific) was amine-coupled to S-series CM5 sensors (~12,000 RU per flow cell) at 25°C using filtered (0.2 μm) and degassed HBS-EP buffer (10 mM HEPES, pH 7.4; 150 mM NaCl; 3 mM EDTA; 0.005% [v/v] Tween-20). After subsequent cooling to 4°C (sample chamber and sensor) and equilibration in PBS running buffer (1× PBS pH 7.4 containing 10% [v/v] glycerol, 2 mM MgCl2, 1 mM ATP, 0.05% [v/v] Tween-20), reference (neutravidin only) and active surfaces (100 μg/mL NBD1 constructs in PBS buffer; capture 5000–8000 RU each) were equilibrated in PBS buffer containing 2% (v/v) DMSO at 10 μL/min. The corrector compounds were titrated over reference and NBD1-immobilized surfaces at 25–50 μL/min (1–2 minutes association plus 2–5 minutes dissociation; 2-fold dilution series for all compounds). Between titration series, the surfaces were regenerated at 50 μL/min using two 30-second pulses of solution I (PBS-DMSO buffer containing 1.0 M NaCl and 0.05% [v/v] Empigen [Anatrace]). […]
Sequence of CFTR (WT-NBD1-1S) (P13569 389-678 F494N limits assumed): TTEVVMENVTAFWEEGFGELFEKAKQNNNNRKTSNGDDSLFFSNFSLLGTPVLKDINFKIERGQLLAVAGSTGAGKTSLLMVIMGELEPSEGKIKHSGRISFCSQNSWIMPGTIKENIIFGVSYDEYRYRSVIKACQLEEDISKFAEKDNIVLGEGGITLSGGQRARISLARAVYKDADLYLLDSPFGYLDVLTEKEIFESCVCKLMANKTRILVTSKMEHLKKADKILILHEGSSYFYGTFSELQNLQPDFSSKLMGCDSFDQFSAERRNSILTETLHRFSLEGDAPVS

A further assay addresses CFTR (F508del-NBD1-1S) (Homo sapiens, UniProt P13569, F494N/DEL508-508). The arrangement: SPR (Biacore T200) steady-state affinity of correctors to immobilized biotinylated CFTR NBD1. Particulars: binder; read-out: ΔF508-NBD1-1S Mean KD. As for the experimental part: as §1

By Kd is commonly meant the concentration at which binding is half-saturated.

Sequence of CFTR (F508del-NBD1-1S) (P13569 with tags, fused parts or gaps F494N/DEL508-508 limits assumed): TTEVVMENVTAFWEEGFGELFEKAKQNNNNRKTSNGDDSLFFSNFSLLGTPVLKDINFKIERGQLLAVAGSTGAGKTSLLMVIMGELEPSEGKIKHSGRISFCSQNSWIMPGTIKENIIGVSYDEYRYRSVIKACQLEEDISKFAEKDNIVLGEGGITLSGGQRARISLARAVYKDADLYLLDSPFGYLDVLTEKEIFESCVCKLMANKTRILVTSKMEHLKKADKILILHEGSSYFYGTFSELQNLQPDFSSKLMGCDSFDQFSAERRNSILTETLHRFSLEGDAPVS

Turning to `CC(C)(CO)c1cc2cc(NC(=O)C3(c4ccc5c(c4)OC(F)(F)O5)CC3)c(F)cc2n1C[C@@H](O)CO` [VX-661, tezacaftor], the Kd at CFTR (WT-NBD1-1S) and at CFTR (F508del-NBD1-1S) was > 200 µM each time.

As for `Cc1nn(C)cc1S(=O)(=O)NC(=O)c1ccc(-n2ccc(OCC(C)(C)C(F)(F)F)n2)nc1N1C[C@@H](C)CC1(C)C` [compound 20, VX-445], the dissociation constant (Kd) was 76 µM on CFTR (WT-NBD1-1S) and 82 µM on CFTR (F508del-NBD1-1S).
